According to ChEMBL document CHEMBL4507282, “Data for DCP probe BI-1950” (2021):

Experiments:
[1] = system: Tyrosine-protein kinase ABL1 (Homo sapiens), P00519 [E255K]; details: Compound concentration 1000.0 nM
[2] = target: Tyrosine-protein kinase ABL2 (Homo sapiens) (UniProt P42684); details: Compound concentration 1000.0 nM
[3] = target: RAC-gamma serine/threonine-protein kinase (Homo sapiens) (UniProt Q9Y243); details: Compound concentration 1000.0 nM
[4] = target: Protein-tyrosine kinase 6 (Homo sapiens) (UniProt Q13882); details: Compound concentration 1000.0 nM
[5] = target: Calcium/calmodulin-dependent protein kinase type 1G (Homo sapiens) (UniProt Q96NX5); details: Compound concentration 1000.0 nM
[6] = target: Calcium/calmodulin-dependent protein kinase type II subunit alpha (Homo sapiens) (UniProt Q9UQM7); details: Compound concentration 1000.0 nM
[7] = target: Calcium/calmodulin-dependent protein kinase type II subunit delta (Homo sapiens) (UniProt Q13557); details: Compound concentration 1000.0 nM
[8] = target: Calcium/calmodulin-dependent protein kinase type II subunit gamma (Homo sapiens) (UniProt Q13555); details: Compound concentration 1000.0 nM
[9] = target: Cyclin-dependent kinase 11A (Homo sapiens) (UniProt Q9UQ88); details: Compound concentration 1000.0 nM
[10] = target: Cyclin-dependent kinase 4 (Homo sapiens) (UniProt P11802); details: Compound concentration 1000.0 nM
[11] = target: Cyclin-dependent kinase 9 (Homo sapiens) (UniProt P50750); details: Compound concentration 1000.0 nM
[12] = target: Megakaryocyte-associated tyrosine-protein kinase (Homo sapiens) (UniProt P42679); details: Compound concentration 1000.0 nM
[13] = system: Epidermal growth factor receptor (Homo sapiens), P00533 [UNDEFINED MUTATION]; details: Compound concentration 1000.0 nM
[14] = target: Eukaryotic translation initiation factor 2-alpha kinase 1 (Homo sapiens) (UniProt Q9BQI3); details: Compound concentration 1000.0 nM
[15] = target: Ephrin type-A receptor 2 (Homo sapiens) (UniProt P29317); details: Compound concentration 1000.0 nM
[16] = target: Ephrin type-A receptor 3 (Homo sapiens) (UniProt P29320); details: Compound concentration 1000.0 nM
[17] = target: Ephrin type-A receptor 5 (Homo sapiens) (UniProt P54756); details: Compound concentration 1000.0 nM
[18] = target: Ephrin type-B receptor 6 (Homo sapiens) (UniProt O15197); details: Compound concentration 1000.0 nM
[19] = system: Receptor-type tyrosine-protein kinase FLT3 (Homo sapiens), P36888 [UNDEFINED MUTATION]; details: Compound concentration 1000.0 nM
[20] = target: Homeodomain-interacting protein kinase 3 (Homo sapiens) (UniProt Q9H422); details: Compound concentration 1000.0 nM
[21] = system: Mast/stem cell growth factor receptor Kit (Homo sapiens), P10721 [L576P]; details: Compound concentration 1000.0 nM
[22] = target: Mitogen-activated protein kinase kinase kinase kinase 2 (Homo sapiens) (UniProt Q12851); details: Compound concentration 1000.0 nM
[23] = target: Serine/threonine-protein kinase MARK1 (Homo sapiens) (UniProt Q9P0L2); details: Compound concentration 1000.0 nM
[24] = system: Hepatocyte growth factor receptor (Homo sapiens), P08581 [M1250T]; details: Compound concentration 1000.0 nM
[25] = target: Misshapen-like kinase 1 (Homo sapiens) (UniProt Q8N4C8); details: Compound concentration 1000.0 nM
[26] = target: Myosin light chain kinase (Homo sapiens) (UniProt Q32MK0); details: Compound concentration 1000.0 nM
[27] = target: Mitogen-activated protein kinase 12 (Homo sapiens) (UniProt P53778); details: Compound concentration 1000.0 nM
[28] = target: Phosphorylase b kinase regulatory subunit alpha, liver isoform (Homo sapiens) (UniProt P46019); details: Compound concentration 1000.0 nM
[29] = target: Serine/threonine-protein kinase SBK1 (Homo sapiens) (UniProt Q52WX2); details: Compound concentration 1000.0 nM
[30] = target: SRSF protein kinase 3 (Homo sapiens) (UniProt Q9UPE1); details: Compound concentration 1000.0 nM
[31] = target: STE20/SPS1-related proline-alanine-rich protein kinase (Homo sapiens) (UniProt Q9UEW8); details: Compound concentration 1000.0 nM
[32] = target: Angiopoietin-1 receptor (Homo sapiens) (UniProt Q02763); details: Compound concentration 1000.0 nM
[33] = target: Activated CDC42 kinase 1 (Homo sapiens) (UniProt Q07912); details: Compound concentration 1000.0 nM
[34] = target: Testis-specific serine/threonine-protein kinase 1 (Homo sapiens) (UniProt Q9BXA7); details: Compound concentration 1000.0 nM
[35] = target: Dual specificity protein kinase TTK (Homo sapiens) (UniProt P33981); details: Compound concentration 1000.0 nM
[36] = target: Serine/threonine-protein kinase WNK1 (Homo sapiens) (UniProt Q9H4A3); details: Compound concentration 1000.0 nM
[37] = target: T1, D(4) dopamine receptor (Homo sapiens) (UniProt P21917); details: Compound concentration 10.0 uM
T1 sequence (whole entry): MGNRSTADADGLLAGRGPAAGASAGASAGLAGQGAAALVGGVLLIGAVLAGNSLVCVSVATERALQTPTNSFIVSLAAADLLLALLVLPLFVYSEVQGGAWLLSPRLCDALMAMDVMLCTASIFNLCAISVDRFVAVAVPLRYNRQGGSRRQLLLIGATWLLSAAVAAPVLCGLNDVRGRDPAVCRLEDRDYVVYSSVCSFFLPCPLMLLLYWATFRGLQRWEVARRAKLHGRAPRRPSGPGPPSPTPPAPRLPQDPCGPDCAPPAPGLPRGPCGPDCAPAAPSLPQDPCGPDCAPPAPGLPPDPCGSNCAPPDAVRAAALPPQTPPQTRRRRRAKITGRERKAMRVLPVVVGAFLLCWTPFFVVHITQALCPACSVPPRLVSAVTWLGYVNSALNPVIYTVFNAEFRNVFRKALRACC

[38] = target: Sodium-dependent serotonin transporter (Homo sapiens) (UniProt P31645); details: Compound concentration 10.0 uM
[39] = target: Kappa-type opioid receptor (Homo sapiens) (UniProt P41145); details: Compound concentration 10.0 uM

Cyclin-dependent kinase 9 (Homo sapiens), sequence (P50750 whole entry): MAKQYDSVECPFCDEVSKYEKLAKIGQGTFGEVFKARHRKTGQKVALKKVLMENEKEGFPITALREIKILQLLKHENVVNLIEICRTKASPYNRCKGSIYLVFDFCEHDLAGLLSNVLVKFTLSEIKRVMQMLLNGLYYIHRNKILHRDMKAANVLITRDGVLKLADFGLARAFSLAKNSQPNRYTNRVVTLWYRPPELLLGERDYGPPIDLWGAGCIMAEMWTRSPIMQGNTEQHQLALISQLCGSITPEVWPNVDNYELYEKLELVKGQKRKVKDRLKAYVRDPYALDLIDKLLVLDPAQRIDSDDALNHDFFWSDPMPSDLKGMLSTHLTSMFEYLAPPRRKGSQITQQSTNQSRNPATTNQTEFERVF
Homeodomain-interacting protein kinase 3 (Homo sapiens), sequence (Q9H422 whole entry, looked up): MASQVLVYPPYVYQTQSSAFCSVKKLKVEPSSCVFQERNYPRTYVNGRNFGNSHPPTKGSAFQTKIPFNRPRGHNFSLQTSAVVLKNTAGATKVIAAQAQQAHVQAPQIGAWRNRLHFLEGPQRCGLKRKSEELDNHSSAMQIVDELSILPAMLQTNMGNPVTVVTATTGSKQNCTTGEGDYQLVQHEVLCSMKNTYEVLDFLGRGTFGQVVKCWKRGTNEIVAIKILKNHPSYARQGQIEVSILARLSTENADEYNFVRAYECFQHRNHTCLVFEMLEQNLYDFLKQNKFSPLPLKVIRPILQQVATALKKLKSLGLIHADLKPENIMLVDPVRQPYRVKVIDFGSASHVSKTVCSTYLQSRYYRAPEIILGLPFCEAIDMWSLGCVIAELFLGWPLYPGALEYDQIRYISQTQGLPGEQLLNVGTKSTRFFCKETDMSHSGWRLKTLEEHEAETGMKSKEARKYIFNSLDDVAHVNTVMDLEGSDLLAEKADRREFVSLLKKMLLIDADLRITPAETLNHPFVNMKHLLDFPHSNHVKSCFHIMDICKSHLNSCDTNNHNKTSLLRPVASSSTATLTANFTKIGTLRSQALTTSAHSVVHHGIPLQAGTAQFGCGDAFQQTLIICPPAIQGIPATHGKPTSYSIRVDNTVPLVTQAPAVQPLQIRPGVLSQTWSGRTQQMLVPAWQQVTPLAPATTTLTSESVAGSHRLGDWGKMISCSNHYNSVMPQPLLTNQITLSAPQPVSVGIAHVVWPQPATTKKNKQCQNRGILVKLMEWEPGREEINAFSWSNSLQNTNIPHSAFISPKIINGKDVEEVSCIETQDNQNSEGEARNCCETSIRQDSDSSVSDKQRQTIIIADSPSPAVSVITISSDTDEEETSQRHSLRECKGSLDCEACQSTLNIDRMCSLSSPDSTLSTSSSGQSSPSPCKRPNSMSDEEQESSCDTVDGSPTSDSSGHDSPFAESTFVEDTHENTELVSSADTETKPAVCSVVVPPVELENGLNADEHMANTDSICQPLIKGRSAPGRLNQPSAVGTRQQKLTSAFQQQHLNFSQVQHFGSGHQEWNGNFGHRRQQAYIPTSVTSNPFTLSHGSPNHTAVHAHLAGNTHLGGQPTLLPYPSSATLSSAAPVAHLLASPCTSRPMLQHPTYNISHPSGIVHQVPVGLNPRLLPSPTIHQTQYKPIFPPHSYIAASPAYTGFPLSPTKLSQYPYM
Sodium-dependent serotonin transporter (Homo sapiens), sequence (P31645 whole entry, looked up): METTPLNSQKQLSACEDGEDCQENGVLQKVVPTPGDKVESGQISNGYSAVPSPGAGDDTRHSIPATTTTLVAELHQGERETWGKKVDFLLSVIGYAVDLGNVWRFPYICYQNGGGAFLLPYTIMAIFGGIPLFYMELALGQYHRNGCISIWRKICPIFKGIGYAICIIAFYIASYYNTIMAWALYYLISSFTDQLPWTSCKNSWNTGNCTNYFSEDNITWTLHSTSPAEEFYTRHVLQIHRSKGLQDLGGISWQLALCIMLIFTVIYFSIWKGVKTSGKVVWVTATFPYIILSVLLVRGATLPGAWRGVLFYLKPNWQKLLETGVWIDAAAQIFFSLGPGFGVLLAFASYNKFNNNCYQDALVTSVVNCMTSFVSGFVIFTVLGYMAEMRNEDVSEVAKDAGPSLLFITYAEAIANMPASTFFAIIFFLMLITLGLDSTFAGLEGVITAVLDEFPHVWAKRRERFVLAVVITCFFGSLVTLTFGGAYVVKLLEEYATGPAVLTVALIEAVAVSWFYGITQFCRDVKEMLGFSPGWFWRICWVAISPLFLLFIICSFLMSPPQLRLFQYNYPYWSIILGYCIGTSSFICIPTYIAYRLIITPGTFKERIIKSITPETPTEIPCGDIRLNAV
Cyclin-dependent kinase 11A (Homo sapiens), sequence (Q9UQ88 whole entry): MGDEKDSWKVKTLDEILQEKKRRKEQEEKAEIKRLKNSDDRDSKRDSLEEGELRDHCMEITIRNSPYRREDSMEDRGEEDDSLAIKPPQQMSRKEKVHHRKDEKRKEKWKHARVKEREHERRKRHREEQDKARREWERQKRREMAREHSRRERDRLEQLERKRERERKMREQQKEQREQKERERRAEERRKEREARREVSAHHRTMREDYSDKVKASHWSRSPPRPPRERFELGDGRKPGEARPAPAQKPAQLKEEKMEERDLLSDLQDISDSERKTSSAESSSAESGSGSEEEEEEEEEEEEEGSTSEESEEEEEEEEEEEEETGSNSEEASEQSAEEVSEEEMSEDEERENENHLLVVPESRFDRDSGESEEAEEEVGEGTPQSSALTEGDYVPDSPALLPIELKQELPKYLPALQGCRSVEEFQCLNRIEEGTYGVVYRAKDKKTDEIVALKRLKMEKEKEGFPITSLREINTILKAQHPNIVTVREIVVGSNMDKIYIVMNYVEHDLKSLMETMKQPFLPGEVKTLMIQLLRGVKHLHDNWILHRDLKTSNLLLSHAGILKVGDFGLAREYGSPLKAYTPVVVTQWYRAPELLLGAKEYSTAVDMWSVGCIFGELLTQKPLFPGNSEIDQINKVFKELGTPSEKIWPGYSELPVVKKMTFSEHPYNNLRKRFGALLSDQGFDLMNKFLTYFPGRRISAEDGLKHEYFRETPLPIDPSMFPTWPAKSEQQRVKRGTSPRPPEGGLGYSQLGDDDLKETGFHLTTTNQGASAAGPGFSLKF
Cyclin-dependent kinase 4 (Homo sapiens), sequence (P11802 whole entry): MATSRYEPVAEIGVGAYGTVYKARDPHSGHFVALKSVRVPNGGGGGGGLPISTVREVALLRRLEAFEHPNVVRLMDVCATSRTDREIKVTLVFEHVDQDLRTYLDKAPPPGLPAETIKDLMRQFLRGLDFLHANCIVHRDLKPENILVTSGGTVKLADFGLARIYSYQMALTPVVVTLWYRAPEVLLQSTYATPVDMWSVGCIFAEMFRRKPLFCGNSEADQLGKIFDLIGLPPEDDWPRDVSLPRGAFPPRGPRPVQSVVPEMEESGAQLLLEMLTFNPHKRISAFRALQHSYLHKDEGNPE
Calcium/calmodulin-dependent protein kinase type 1G (Homo sapiens), sequence (Q96NX5 whole entry): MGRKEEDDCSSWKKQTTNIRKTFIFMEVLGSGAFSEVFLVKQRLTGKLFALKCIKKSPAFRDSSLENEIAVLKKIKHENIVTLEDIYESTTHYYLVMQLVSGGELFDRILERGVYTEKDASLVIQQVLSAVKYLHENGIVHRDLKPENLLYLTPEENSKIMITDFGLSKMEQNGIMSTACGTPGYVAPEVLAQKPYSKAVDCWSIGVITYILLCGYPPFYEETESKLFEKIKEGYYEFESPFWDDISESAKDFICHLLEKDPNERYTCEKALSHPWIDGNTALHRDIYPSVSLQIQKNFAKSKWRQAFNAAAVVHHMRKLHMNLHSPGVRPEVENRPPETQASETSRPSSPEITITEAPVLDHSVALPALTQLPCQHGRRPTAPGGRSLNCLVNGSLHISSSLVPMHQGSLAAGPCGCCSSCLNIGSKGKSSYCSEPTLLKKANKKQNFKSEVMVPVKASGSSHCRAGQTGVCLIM
Ephrin type-A receptor 2 (Homo sapiens), sequence (P29317 whole entry): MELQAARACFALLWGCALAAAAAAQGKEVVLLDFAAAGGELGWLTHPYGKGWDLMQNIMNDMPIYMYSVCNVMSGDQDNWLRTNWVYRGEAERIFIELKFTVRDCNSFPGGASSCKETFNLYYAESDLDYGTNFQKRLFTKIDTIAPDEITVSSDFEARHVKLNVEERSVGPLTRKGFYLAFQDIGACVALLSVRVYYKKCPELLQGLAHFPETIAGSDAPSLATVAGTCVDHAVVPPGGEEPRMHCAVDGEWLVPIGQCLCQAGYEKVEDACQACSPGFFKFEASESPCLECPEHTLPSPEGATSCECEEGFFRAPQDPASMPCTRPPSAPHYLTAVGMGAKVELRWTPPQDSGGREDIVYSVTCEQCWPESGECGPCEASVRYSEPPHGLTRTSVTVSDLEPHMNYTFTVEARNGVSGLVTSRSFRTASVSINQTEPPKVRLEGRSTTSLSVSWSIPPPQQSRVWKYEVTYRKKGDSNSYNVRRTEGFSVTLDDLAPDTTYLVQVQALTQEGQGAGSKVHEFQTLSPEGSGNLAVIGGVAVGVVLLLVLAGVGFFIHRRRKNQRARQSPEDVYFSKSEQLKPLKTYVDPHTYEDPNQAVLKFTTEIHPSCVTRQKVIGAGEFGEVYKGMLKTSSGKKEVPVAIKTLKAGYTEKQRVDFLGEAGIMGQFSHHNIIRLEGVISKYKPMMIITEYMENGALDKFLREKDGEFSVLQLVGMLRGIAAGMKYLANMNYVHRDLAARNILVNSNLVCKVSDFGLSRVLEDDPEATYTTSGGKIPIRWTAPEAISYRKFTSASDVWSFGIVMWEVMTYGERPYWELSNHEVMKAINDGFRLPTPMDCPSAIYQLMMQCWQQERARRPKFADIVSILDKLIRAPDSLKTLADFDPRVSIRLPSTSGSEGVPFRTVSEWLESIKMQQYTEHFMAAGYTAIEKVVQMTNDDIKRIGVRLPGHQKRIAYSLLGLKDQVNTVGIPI

## C[C@H](NC(=O)c1cnc2n1[C@](C)(Cc1ccc(C#N)cc1)C(=O)N2c1cc(Cl)c(F)c(Cl)c1)C(=O)NC1(c2ccccn2)CC1 [BI 1950]
[1]
  residual activity: 93%
[2]
  residual activity: 83%
[3]
  residual activity: 60%
[4]
  residual activity: 92%
[5]
  residual activity: 100%
[6]
  residual activity: 96%
[7]
  residual activity: 100%
[8]
  residual activity: 100%
[9]
  residual activity: 100%
[10]
  residual activity: 100%
[11]
  residual activity: 100%
[12]
  residual activity: 100%
[13]
  residual activity: 82%
[14]
  residual activity: 93%
[15]
  residual activity: 75%
[16]
  residual activity: 88%
[17]
  residual activity: 100%
[18]
  residual activity: 100%
[19]
  residual activity: 100%
[20]
  residual activity: 100%
[21]
  residual activity: 83%
[22]
  residual activity: 100%
[23]
  residual activity: 100%
[24]
  residual activity: 100%
[25]
  residual activity: 100%
[26]
  residual activity: 100%
[27]
  residual activity: 100%
[28]
  residual activity: 100%
[29]
  residual activity: 100%
[30]
  residual activity: 100%
[31]
  residual activity: 24%
[32]
  residual activity: 91%
[33]
  residual activity: 94%
[34]
  residual activity: 79%
[35]
  residual activity: 100%
[36]
  residual activity: 100%
[37]
  inhibition: -2.68%
[38]
  inhibition: -4.33%
[39]
  inhibition: 9.67%

## C[C@@]1(Cc2ccc(C#N)cc2)C(=O)N(c2cc(Cl)cc(Cl)c2)c2ncc(C(=O)NC3(c4nc(C5CCC5)no4)CC3)n21 [BI 9446]
[1]
  residual activity: 95%
[2]
  residual activity: 78%
[3]
  residual activity: 100%
[4]
  residual activity: 100%
[5]
  residual activity: 100%
[6]
  residual activity: 89%
[7]
  residual activity: 100%
[8]
  residual activity: 100%
[9]
  residual activity: 100%
[10]
  residual activity: 100%
[11]
  residual activity: 100%
[12]
  residual activity: 100%
[13]
  residual activity: 58%
[14]
  residual activity: 100%
[15]
  residual activity: 56%
[16]
  residual activity: 83%
[17]
  residual activity: 100%
[18]
  residual activity: 100%
[19]
  residual activity: 100%
[20]
  residual activity: 100%
[21]
  residual activity: 100%
[22]
  residual activity: 100%
[23]
  residual activity: 100%
[24]
  residual activity: 100%
[25]
  residual activity: 100%
[26]
  residual activity: 87%
[27]
  residual activity: 100%
[28]
  residual activity: 100%
[29]
  residual activity: 95%
[30]
  residual activity: 100%
[31]
  residual activity: 91%
[32]
  residual activity: 92%
[33]
  residual activity: 86%
[34]
  residual activity: 76%
[35]
  residual activity: 94%
[36]
  residual activity: 99%
[37]
  inhibition: 13.6%
[38]
  inhibition: 5.35%
[39]
  inhibition: 12.6%
